Data from US20220211654A1, “MATERIALS AND METHODS FOR TREATING AGE-RELATED MACULAR DEGENERATION” (THE REGENTS OF THE UNIVERSITY OF CALIFORNIA, priority 2019, published 2022).

Experiments:
[1] = tested on: AMD ARPE-19 transmitochondrial cybrid cells; assay: Mitochondrial membrane potential (JC-1) assay; type: cell-based, human; conditions: AMD cybrids; fenofibrate 50 μM; compared to untreated
Procedure: Mitochondrial membrane potential (JC-1) assay: The JC-1 assay uses a unique cationic dye i.e., 5,5′,6,6′-tetrachloro-1,1′,3,3′-tetraethylbenzimidazolylcarbocyanine iodide, to detect loss of mitochondrial membrane potential. JC-1 1× reagent was prepared by diluting 100× JC-1 reagent in assay buffer to 1:100 dilutions. […] 1× JC-1 reagent was added to cells and incubated for 15 min at 37° C. JC-1 reagent in the wells was then replaced with DPBS and fluorescence was measured as follows: Red fluorescence (Live cells): Excitation 550 nm and Emission 600 nm; Green fluorescence (Apoptotic cells): Excitation 485 nm and Emission 535 nm. Ratio of Red/Green was used for analysis. Lower ratio corresponded to higher apoptotic/dead cell number.

[2] = tested on: AMD ARPE-19 transmitochondrial cybrid cells; assay: MitoSOX assay (mitochondrial superoxide); type: cell-based, human; conditions: AMD cybrids, fenofibrate 50 μM
Procedure: MitoSOX assay: The fluorogenic MitoSOX Red dye (Cat. #M36008, Invitrogen, Grand Island, N.Y., USA) is a live-cell permeant reagent that detects mitochondrial superoxide in cells. MitoSOX Red reagent oxidized by superoxide has red fluorescence that can be quantified. AMD cybrids were plated in 24-well tissue culture plates. Stock solution of 5 mM MitoSOX reagent was diluted with HBSS (Hank's balanced salt solution) buffer to obtain a 5 μM working solution. Cells were treated with 5 μM MitoSOX reagent and incubated for 10 min at 37° C. Cells were then washed with HBSS buffer, and fluorescence was measured at excitation/emission maxima of 510/580 nm.

[3] = tested on: AMD ARPE-19 transmitochondrial cybrid cells; assay: CellLight Mitochondrial GFP staining and confocal microscopy; type: cell-based, human; conditions: fenofibrate 50 μM
Procedure: CellLight Mitochondrial GFP staining and Confocal microscopy: Staining with CellLight Mitochondrial GFP probe (Cat. #C10600, Thermo Fisher Scientific, MA, USA) and confocal microscopy were performed as described previously (74). Cells were plated in 4-well tissue culture chamber slides, stained with CellLight mtGFP for 24 hr and incubated overnight at 37° C. The cells were washed with 1×TBS (Tris buffered saline), fixed in paraformaldehyde and mounted in DAPI. Confocal z-stack images were captured using the LSM-700 Confocal microscope (Zeiss, Thornwood, N.Y., USA). Images were quantified using ZEN 2 lite software (Zeiss).
RPE cells were transduced with CellLight reagent which is a GFP-E1 alpha pyruvate dehydrogenase leader peptide construct with a mammalian promoter. This fluorescent baculoviral fusion construct provides precise targeting to mitochondria.

[4] = tested on: AMD ARPE-19 transmitochondrial cybrid cells; assay: Cell viability assay (MTT assay); conditions: for cell viability, Mean ± SEM: AMD UN = 1
Procedure: All cybrids used in this study belonged to the ‘H’ mitochondrial DNA haplogroup. […] Stock solutions of 20 mM kaempferol and 10 mM telmisartan were prepared in DMSO and were diluted in culture media to obtain the following working concentrations: kaempferol at 5 μM, 10 μM, and 20 μM; telmisartan at 2.5 μM, 5 μM, and 10 μM. Cell viability assay (MTT assay): The numbers of viable cells were measured using the MTT (3-(4,5-dimethylthiazol-2-yl)-2,5-diphenyltetrazolium bromide) assay. […] Cells were incubated at 37° C. for 1 h, followed by addition of DMSO. Absorbance was measured at 570 nm and background absorbance measured at 630 nm. Normalized absorbance values were obtained by subtracting background absorbance from signal absorbance. The colorimetric signal obtained was proportional to the cell number.

PGC-1α = assay: qRT-PCR gene expression of PGC-1α in AMD RPE cybrid cells; type: cell-based, human; conditions: 72 hr, AMD UN = 1
Procedure: (§1) Quantitative Real-Time PCR: RNA extraction, cDNA synthesis, and qRT-PCR analysis were performed as described previously (73). QuantiTect Primer Assays were used to study the expression of Caspase-3 gene (Cat. #QT00023947, Qiagen, Germantown, Md.), BAX gene (Cat. #QT00031192, Qiagen), HIF1α gene (Cat. #QT00083664, Qiagen), CFH gene (Cat. #QT00001624, Qiagen), and SOD2 gene (Cat. #QT01008693, Qiagen). KiCqStart® SYBR® green primers were used to examine the expression of PGC-1a, NRF-1, NRF-2, PPAR-α, PPAR-γ, VEGF, IL-18, and IFNB1 genes (Cat. #kspq12012, Sigma, St. Louis, Mo.). Specific housekeeper genes used were HPRT1 (Cat. #QT00059066, Qiagen), ALAS variant 1 (Cat. #QT01160467, Qiagen), and HMBS (Cat. #QT00014462). TaqMan gene expression master mix (Cat. #4369016, Life Technologies) and TaqMan gene expression assays were used to examine the expression of the MT-RNR2 gene (Assay ID: Hs02596860_s1, Life Technologies), for which GAPDH (Assay ID: Hs02786624_g1, Life Technologies) was used as a housekeeper gene. Data analysis was performed using ΔΔCt method which was calculated by subtracting ΔCt of the AMD group from ΔCt of the normal group. ΔCt was the difference between the Cts (threshold cycles) of the target gene and Cts of the housekeeper gene (reference gene). Fold change was calculated using the following formula: Fold change=2^ΔΔct.

SOD2 = assay: qRT-PCR gene expression of SOD2 in AMD RPE cybrid cells; type: cell-based, human; conditions: 72 hr, AMD UN = 1
Procedure: as §1

Caspase-3 = assay: qRT-PCR gene expression of Caspase-3 in AMD RPE cybrid cells; type: cell-based, human; conditions: 72 hr; for Caspase-3 gene expression, Mean ± SEM: AMD UN = 1
Procedure: as §1

IL-18 = assay: qRT-PCR gene expression of IL-18 in AMD RPE cybrid cells; type: cell-based, human; conditions: 72 hr, AMD UN = 1
Procedure: as §1

VEGF = assay: qRT-PCR gene expression of VEGF in AMD RPE cybrid cells; type: cell-based, human; conditions: 72 hr; for VEGF gene expression, Mean ± SEM: AMD UN = 1
Procedure: as §1

esterase = assay: fenofibrate to fenofibrate* conversion (first pass) and its block by esterase inhibitors; conditions: co-administered with fenofibrate
[5] = only kaempferol 20 μM, compared to untreated AMD cybrids

CC(C)OC(=O)C(C)(C)Oc1ccc(C(=O)c2ccc(Cl)cc2)cc1 [fenofibrate]
increased mitochondrial membrane potential (JC-1 assay) [1]: 116% | mitochondrial superoxides, MitoSOX fluorescence (mean±SEM) ([2]; AMD UN = 1): 0.77±0.04 | lower amount of mitochondrial superoxides (MitoSOX assay) ([2]; compared to untreated): 23% | mtGFP fluorescence intensity (mean±SEM) ([3]; AMD UN = 1): 2.73±0.39 | increase in mtGFP fluorescence intensity ([3]; compared to untreated): 173% | cell viability, Mean ± SEM ([4]; 48 hr, fenofibrate 50 μM only): 1.33 ± 0.09 | cell viability, Mean ± SEM ([4]; 72 hr, fenofibrate 50 μM only): 1.37 ± 0.07 | higher cell viability ([4]; AMD cells, fenofibrate 50 μM, compared to untreated): 51%

O=c1c(O)c(-c2ccc(O)cc2)oc2cc(O)cc(O)c12 [kaempferol, 3,5,7-trihydroxy-2-(4-hydroxyphenyl)-4H-1-benzopyran-4-one]
PGC-1a gene expression, Mean ± SEM (PGC-1α; kaempferol 20 μM only): 1.82 ± 0.57 | SOD2 gene expression, Mean ± SEM (SOD2; kaempferol 20 μM only): 0.88 ± 0.22 | Caspase-3 gene expression, Mean ± SEM (Caspase-3; kaempferol 20 μM only): 0.74 ± 0.045 | Caspase-3 downregulation (Caspase-3; [5]): 26% | IL-18 gene expression, Mean ± SEM (IL-18; kaempferol 20 μM only): 0.78 ± 0.13 | VEGF gene expression, Mean ± SEM (VEGF; kaempferol 20 μM only): 0.42 ± 0.16 | VEGF downregulation (VEGF; [5]): 58% | block of conversion of fenofibrate to fenofibrate* (esterase): largely block conversion to fenofibrate* | cell viability, Mean ± SEM ([4]; 48 hr, kaempferol 20 μM only): 1.037 ± 0.1413 | cell viability, Mean ± SEM ([4]; 72 hr, kaempferol 20 μM only): did not show any difference in cell viability | cell viability, Mean ± SEM ([4]; 72 hr, kaempferol 20 μM only, listed as kempferol): 1.259 ± 0.1060

CCCc1nc2c(C)cc(-c3nc4ccccc4n3C)cc2n1Cc1ccc(-c2ccccc2C(=O)O)cc1 [telmisartan]
PGC-1a gene expression, Mean ± SEM (PGC-1α; telmisartan 10 μM only): 1.40 ± 0.48 | SOD2 gene expression, Mean ± SEM (SOD2; telmisartan 10 μM only): 1.71 ± 0.46 | Caspase-3 gene expression, Mean ± SEM (Caspase-3; telmisartan 10 μM only): 0.86 ± 0.06 | IL-18 gene expression, Mean ± SEM (IL-18; telmisartan 10 μM only): 0.71 ± 0.25 | VEGF gene expression, Mean ± SEM (VEGF; telmisartan 10 μM only): 0.52 ± 0.19 | block of conversion of fenofibrate to fenofibrate* (esterase): largely block conversion to fenofibrate* | cell viability, Mean ± SEM ([4]; 48 hr, telmisartan 10 μM only): 0.95 ± 0.11 | cell viability, Mean ± SEM ([4]; 72 hr, telmisartan 10 μM only): 0.99 ± 0.09
